Reference: ChEMBL document CHEMBL4477222, “Discovery of Novel Thiophene-Based, Thumb Pocket 2 Allosteric Inhibitors of the Hepatitis C NS5B Polymerase with Improved Potency and Physicochemical Profiles” (J Med Chem, 2016)

How the values were obtained:
[1] = Cytotoxicity against human Huh7ET cells assessed as reduction in cell viability after 4 days; type: cell-based
[2] = Cytotoxicity against human W11.8 cells assessed as reduction in cell viability after 4 days; type: cell-based
Nonstructural protein 5A = Nonstructural protein 5A (Hepatitis C virus, UniProt Q5L478); test: Inhibition of HCV genotype 2a NS5A; parameters: species or system Hepatitis C virus subtype 2a
[3] = target: RNA-directed RNA polymerase (Hepacivirus hominis, UniProt O39930, L419I); test: Inhibition of HCV genotype 1a NS5B L419I mutant; parameters: species or system Hepatitis C virus subtype 1a
[4] = target: Nonstructural protein 5A (Hepatitis C virus) (UniProt Q5L478); test: Ratio of EC50 for HCV genotype 1b NS5A infected in human l389lucubi- neo/NS3-375.1-containing Huh7ET cells in presence of 40% human serum to EC50 for HCV genotype 1b NS5A infected in human l389lucubi- neo/NS3-375.1-containing Huh7ET cells; conditions: Hepatitis C virus subtype 1b
[5] = target: RNA-directed RNA polymerase (Hepacivirus hominis, UniProt O39930, M423T); test: Inhibition of HCV genotype 1a NS5B M423T mutant; parameters: species or system Hepatitis C virus subtype 1a
[6] = target: RNA-directed RNA polymerase (Hepacivirus hominis, UniProt O39930, M423I); test: Inhibition of HCV genotype 1a NS5B M423I mutant; parameters: species or system Hepatitis C virus subtype 1a
[7] = target: RNA-directed RNA polymerase (Hepacivirus hominis, UniProt O39930, L419M); test: Inhibition of HCV genotype 1a NS5B L419M mutant; parameters: species or system Hepatitis C virus subtype 1a
Hepatitis C virus = test: Antiviral activity against HCV genotype 1 infected in human assessed as log10 reduction in viral load at 500 mg[…] bid for 3 days measured on day 4 post treatment; type: functional, Hepacivirus hominis
[8] = target: RNA-directed RNA polymerase (Hepacivirus hominis, UniProt O39930, M423V); test: Inhibition of HCV genotype 1a NS5B M423V mutant; parameters: species or system Hepatitis C virus subtype 1a

| SMILES | CC50 at 96 h [1] [µM] | CC50 at 96 h [2] [µM] | other results |
| --- | --- | --- | --- |
| CC(C)[C@@H](C(=O)N(C)C)N(c1cc(C#CC(C)(C)C)sc1C(=O)O)C(=O)[C@H]1CC[C@H](C)CC1 | > 20 | > 20 |  |
| CN(C)CCN(C)C(=O)CN(c1cc(C#CC(C)(C)C)sc1C(=O)O)C(=O)[C@H]1CC[C@H](C)CC1 | > 20 | > 20 |  |
| CC(C)(C)C#Cc1cc(N(CC(=O)N2CCCC2)C(=O)[C@H]2CC[C@H](C)CC2)c(C(=O)O)s1 | > 20 | > 20 |  |
| CN(C)C(=O)CN(c1cc(C#CC(C)(C)C)sc1C(=O)O)C(=O)[C@H]1CC[C@H](C)CC1 | > 20 | > 20 |  |
| COC[C@@H](C(=O)N(C)C)N(c1cc(C#CC(C)(C)C)sc1C(=O)O)C(=O)[C@H]1CC[C@H](C)CC1 | > 20 | > 20 |  |
| CC[C@@H](C(=O)N(C)C)N(c1cc(C#CC(C)(C)C)sc1C(=O)O)C(=O)[C@H]1CC[C@H](C)CC1 | > 20 | > 20 |  |
| CC(C)(C)C#Cc1cc(N(C(=O)[C@H]2CC[C@H](C)CC2)[C@H]2CC[C@H](O)CC2)c(C(=O)O)s1 [LOMIBUVIR] | > 20 | > 20 | EC50 (Nonstructural protein 5A): 8.1 µM; EC50 [3]: 0.32 µM; Ratio EC50 [4]: 10 to 20; EC50 [5]: 0.31 µM; EC50 [6]: 0.03 µM; EC50 [7]: 0.32 µM; FC (Hepatitis C virus): 3.4; EC50 [8]: 0.065 µM |
| CNC(=O)CN(c1cc(C#CC(C)(C)C)sc1C(=O)O)C(=O)[C@H]1CC[C@H](C)CC1 | > 20 | > 20 |  |
| C[C@@H](C(=O)N(C)C)N(c1cc(C#CC(C)(C)C)sc1C(=O)O)C(=O)[C@H]1CC[C@H](C)CC1 | > 20 | > 20 |  |
| CC(C)NC(=O)CN(c1cc(C#CC(C)(C)C)sc1C(=O)O)C(=O)[C@H]1CC[C@H](C)CC1 | > 20 | > 20 |  |
| COC1CCN(C(=O)CN(c2cc(C#CC(C)(C)C)sc2C(=O)O)C(=O)[C@H]2CC[C@H](C)CC2)CC1 | > 20 | > 20 |  |
| CC(C)(C)C#Cc1cc(N(CC(=O)N2CCCCC2)C(=O)[C@H]2CC[C@H](C)CC2)c(C(=O)O)s1 | > 20 | > 20 |  |
| CN1CCN(C(=O)CN(c2cc(C#CC(C)(C)C)sc2C(=O)O)C(=O)[C@H]2CC[C@H](C)CC2)CC1 | > 20 | > 20 |  |
| CC(C)(C)C#Cc1cc(N(CC(=O)N2CCC(O)CC2)C(=O)[C@H]2CC[C@H](C)CC2)c(C(=O)O)s1 | > 20 | > 20 |  |
| CCN(CC)C(=O)CN(c1cc(C#CC(C)(C)C)sc1C(=O)O)C(=O)[C@H]1CC[C@H](C)CC1 | > 20 | > 20 |  |
| CN(C)C(=O)[C@H](CO)N(c1cc(C#CC(C)(C)C)sc1C(=O)O)C(=O)[C@H]1CC[C@H](C)CC1 | > 20 | > 20 |  |
| CC(C)(C)C#Cc1cc(N(CC(=O)N2CC(O)C2)C(=O)[C@H]2CC[C@H](C)CC2)c(C(=O)O)s1 | > 20 | > 20 |  |
| C[C@H](C(=O)N(C)C)N(c1cc(C#CC(C)(C)C)sc1C(=O)O)C(=O)[C@H]1CC[C@H](C)CC1 | > 20 | > 20 |  |
| CCC[C@@H](C(=O)N(C)C)N(c1cc(C#CC(C)(C)C)sc1C(=O)O)C(=O)[C@H]1CC[C@H](C)CC1 | > 20 | > 20 |  |
